From patent US9695155B2, “Herbicidal substituted pyrimidinyloxy benzene compounds” (E. I. DU PONT DE NEMOURS AND COMPANY, priority 2013, dated 2017)

How the values were obtained:
[1] = test system: barnyardgrass; assay: Test B flooded paddy test; format: in vivo, Echinochloa crus-galli; settings: Flood, 250 g ai/ha; 0 to 100 scale where 0 is no effect and 100 is complete control
Procedure, shortened: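 Seedlings are raised to two leaves, flooded to a depth of 3 cm and dosed by adding the compound to the floodwater. Water level is kept constant, and plants are scored visually versus controls 13–15 days later (0 = no effect, 100 = complete control).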

[2] = test system: Heteranthera limosa; assay: Test B flooded paddy test; format: in vivo; settings: Flood, 250 g ai/ha; 0 to 100 scale where 0 is no effect and 100 is complete control
Procedure: (§1) Plant species in the flooded paddy test selected from rice (Oryza sativa), sedge, umbrella (small-flower umbrella sedge, Cyperus difformis), (Heteranthera limosa), and barnyardgrass (Echinochloa crus-galli) were grown to the 2-leaf stage for testing. At time of treatment, test pots were flooded to 3 cm above the soil surface, treated by application of test compounds directly to the paddy water, and then maintained at that water depth for the duration of the test. Treated plants and controls were maintained in a greenhouse for 13 to 15 days, after which time all species were compared to controls and visually evaluated. Plant response ratings, summarized in Table B, are based on a scale of 0 to 100 where 0 is no effect and 100 is complete control. A dash (-) response means no test result.

[3] = test system: corn; assay: Test A postemergence; format: in vivo, Zea mays; settings: 0 to 100 scale where 0 is no effect and 100 is complete control; for Corn plant response rating: 125 g ai/ha; for Plant response rating, Corn: 500 g ai/ha
Procedure, shortened: (§2)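 Compounds in non-phytotoxic solvent with surfactant applied as soil spray preemergence, or postemergence to plants 2-10 cm at one- to two-leaf stage, in loam/sand. After approximately 10 days in greenhouse, injury rated visually versus untreated controls, 0 (no effect) to 100 (complete control).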

[4] = test system: morningglory; assay: Test A preemergence; format: in vivo, Ipomoea spp.; settings: for Morningglory plant response rating (0 to 100 scale): 125 g ai/ha; for Morningglory plant response rating: 500 g ai/ha, 0 to 100 scale where 0 is no effect and 100 is complete control
Procedure, shortened: as §2

[5] = test system: velvetleaf; assay: Test A postemergence; format: in vivo, Abutilon theophrasti; settings: 0 to 100 scale where 0 is no effect and 100 is complete control; for Velvetleaf plant response rating: 125 g ai/ha; for Plant response rating, Velvetleaf: 500 g ai/ha
Procedure, shortened: as §2

[6] = test system: giant foxtail; assay: Test A preemergence; format: in vivo, Setaria faberii; settings: for Foxtail, Giant plant response rating (0 to 100 scale): 125 g ai/ha; for Foxtail, Giant plant response rating: 500 g ai/ha, 0 to 100 scale where 0 is no effect and 100 is complete control
Procedure, shortened: as §2

[7] = test system: wheat; assay: Test A preemergence; format: in vivo, Triticum aestivum; settings: for Wheat plant response rating (0 to 100 scale): 125 g ai/ha; for Wheat plant response rating: 500 g ai/ha, 0 to 100 scale where 0 is no effect and 100 is complete control
Procedure, shortened: as §2

[8] = test system: barnyardgrass; assay: Test A preemergence; format: in vivo, Echinochloa crus-galli; settings: for Barnyardgrass plant response rating (0 to 100 scale, 0 is no effect, 100 is complete control): 125 g ai/ha; for Barnyardgrass plant response rating: 500 g ai/ha, 0 to 100 scale where 0 is no effect and 100 is complete control
Procedure, shortened: as §2

[9] = test system: morningglory; assay: Test A postemergence; format: in vivo, Ipomoea spp.; settings: 0 to 100 scale where 0 is no effect and 100 is complete control; for Morningglory plant response rating: 125 g ai/ha; for Plant response rating, Morningglory: 500 g ai/ha
Procedure, shortened: as §2

[10] = test system: wheat; assay: Test A postemergence; format: in vivo, Triticum aestivum; settings: 0 to 100 scale where 0 is no effect and 100 is complete control; for Wheat plant response rating: 125 g ai/ha; for Plant response rating, Wheat: 500 g ai/ha
Procedure, shortened: as §2

[11] = test system: large (Lg) crabgrass; assay: Test A preemergence; format: in vivo, Digitaria sanguinalis; settings: for Crabgrass, Large plant response rating (0 to 100 scale): 125 g ai/ha; for Crabgrass, Large plant response rating: 500 g ai/ha, 0 to 100 scale where 0 is no effect and 100 is complete control
Procedure, shortened: as §2

[12] = test system: velvetleaf; assay: Test A preemergence; format: in vivo, Abutilon theophrasti; settings: for Velvetleaf plant response rating (0 to 100 scale): 125 g ai/ha; for Velvetleaf plant response rating: 500 g ai/ha, 0 to 100 scale where 0 is no effect and 100 is complete control
Procedure, shortened: as §2

[13] = test system: sedge, umbrella; assay: Test B flooded paddy test; format: in vivo, Cyperus difformis; settings: Flood, 250 g ai/ha; 0 to 100 scale where 0 is no effect and 100 is complete control
Procedure: as §1

[14] = test system: rice; assay: Test B flooded paddy test; format: in vivo, Oryza sativa; settings: Flood, 250 g ai/ha; 0 to 100 scale where 0 is no effect and 100 is complete control
Procedure: as §1

[15] = test system: corn; assay: Test A preemergence; format: in vivo, Zea mays; settings: for Corn plant response rating (0 to 100 scale): 125 g ai/ha; for Corn plant response rating: 500 g ai/ha, 0 to 100 scale where 0 is no effect and 100 is complete control
Procedure, shortened: as §2

[16] = test system: barnyardgrass; assay: Test A postemergence; format: in vivo, Echinochloa crus-galli; settings: 0 to 100 scale where 0 is no effect and 100 is complete control; for Barnyardgrass plant response rating: 125 g ai/ha; for Plant response rating, Barnyardgrass: 500 g ai/ha
Procedure, shortened: as §2

[17] = test system: pigweed; assay: Test A preemergence; format: in vivo, Amaranthus retroflexus; settings: for Pigweed plant response rating (0 to 100 scale): 125 g ai/ha; for Pigweed plant response rating: 500 g ai/ha, 0 to 100 scale where 0 is no effect and 100 is complete control
Procedure, shortened: as §2

[18] = test system: pigweed; assay: Test A postemergence; format: in vivo, Amaranthus retroflexus; settings: 0 to 100 scale where 0 is no effect and 100 is complete control; for Pigweed plant response rating: 125 g ai/ha; for Plant response rating, Pigweed: 500 g ai/ha
Procedure, shortened: as §2

[19] = test system: giant foxtail; assay: Test A postemergence; format: in vivo, Setaria faberii; settings: 0 to 100 scale where 0 is no effect and 100 is complete control; for Foxtail, Giant plant response rating: 125 g ai/ha; for Plant response rating, Foxtail, Giant: 500 g ai/ha
Procedure, shortened: as §2

[20] = test system: large (Lg) crabgrass; assay: Test A postemergence; format: in vivo, Digitaria sanguinalis; settings: 0 to 100 scale where 0 is no effect and 100 is complete control; for Crabgrass, Large plant response rating: 125 g ai/ha; for Plant response rating, Crabgrass, Large: 500 g ai/ha
Procedure, shortened: as §2

Structure (SMILES)	Plant response rating, Barnyardgrass [1]	Plant response rating, Ducksalad [2]	Corn plant response rating [3]	Plant response rating, Corn [3]	Morningglory plant response rating (0 to 100 scale) [4]	Morningglory plant response rating [4]	Velvetleaf plant response rating [5]	Plant response rating, Velvetleaf [5]	Foxtail, Giant plant response rating (0 to 100 scale) [6]	Foxtail, Giant plant response rating [6]	Wheat plant response rating (0 to 100 scale) [7]	Wheat plant response rating [7]	Barnyardgrass plant response rating (0 to 100 scale, 0 is no effect, 100 is complete control) [8]	Barnyardgrass plant response rating [8]	Morningglory plant response rating [9]	Plant response rating, Morningglory [9]	Wheat plant response rating [10]	Plant response rating, Wheat [10]	Crabgrass, Large plant response rating (0 to 100 scale) [11]	Crabgrass, Large plant response rating [11]	also measured
N#Cc1cc(F)cc(Oc2ncc(Br)cn2)c1-n1cc(Br)cn1 [Compound 239]	0	65	0	20	0	30	50	60	90	100	0	20	20	100	40	40	0	0	100	100	Velvetleaf plant response rating (0 to 100 scale) [12]: 10; Velvetleaf plant response rating [12]: 20; Plant response rating, Sedge, Umbrella [13]: 70; Plant response rating, Rice [14]: 30; Corn plant response rating (0 to 100 scale) [15]: 0; Corn plant response rating [15]: 10; Barnyardgrass plant response rating [16]: 0; Plant response rating, Barnyardgrass [16]: 80; Pigweed plant response rating (0 to 100 scale) [17]: 100; Pigweed plant response rating [17]: 100; Pigweed plant response rating [18]: 90; Plant response rating, Pigweed [18]: 100; Foxtail, Giant plant response rating [19]: 20; Plant response rating, Foxtail, Giant [19]: 70; Crabgrass, Large plant response rating [20]: 10; Plant response rating, Crabgrass, Large [20]: 70
C#Cc1cnc(Oc2cccc(C#N)c2-n2cc(Br)cn2)nc1 [Compound 215]	0	0	0	20	0	0	40	50	0	50	0	0	0	10	10	10	0	0	20	80	Velvetleaf plant response rating (0 to 100 scale) [12]: 0; Velvetleaf plant response rating [12]: 10; Plant response rating, Sedge, Umbrella [13]: 0; Plant response rating, Rice [14]: 0; Corn plant response rating (0 to 100 scale) [15]: 0; Corn plant response rating [15]: 0; Barnyardgrass plant response rating [16]: 0; Plant response rating, Barnyardgrass [16]: 30; Pigweed plant response rating (0 to 100 scale) [17]: 90; Pigweed plant response rating [17]: 100; Pigweed plant response rating [18]: 70; Plant response rating, Pigweed [18]: 80; Foxtail, Giant plant response rating [19]: 0; Plant response rating, Foxtail, Giant [19]: 10; Crabgrass, Large plant response rating [20]: 10; Plant response rating, Crabgrass, Large [20]: 30
